± gives the uncertainty stated by the source.
Experiment: xn = mol fraction of the nth substance listed

CC(=O)Nc1ccc(O)cc1 + O + CCCC[n+]1ccn(C)c1.[Cl-]
electrical conductivity (293.15 K, 101 kPa, frequency 0.0003 MHz, x1 = 0.0005511, x3 = 5.07e-06): 0.0028 ± 0.0035 S/m | electrical conductivity (293.15 K, 101 kPa, frequency 0.0003 MHz, x1 = 0.0005511, x3 = 8.5e-06): 0.0044 ± 0.0034 S/m | electrical conductivity (293.15 K, 101 kPa, frequency 0.0003 MHz, x1 = 0.0005511, x3 = 1.194e-05): 0.0061 ± 0.0034 S/m | electrical conductivity (293.15 K, 101 kPa, frequency 0.0003 MHz, x1 = 0.0005511, x3 = 1.61e-05): 0.0081 ± 0.0034 S/m | electrical conductivity (293.15 K, 101 kPa, frequency 0.0003 MHz, x1 = 0.0005511, x3 = 1.954e-05): 0.0096 ± 0.0034 S/m | electrical conductivity (293.15 K, 101 kPa, frequency 0.0003 MHz, x1 = 0.001084, x3 = 4.54e-06): 0.0025 ± 0.0031 S/m | electrical conductivity (293.15 K, 101 kPa, frequency 0.0003 MHz, x1 = 0.001084, x3 = 7.63e-06): 0.0038 ± 0.003 S/m | electrical conductivity (293.15 K, 101 kPa, frequency 0.0003 MHz, x1 = 0.001084, x3 = 1.144e-05): 0.0055 ± 0.003 S/m | electrical conductivity (293.15 K, 101 kPa, frequency 0.0003 MHz, x1 = 0.001084, x3 = 1.471e-05): 0.0067 ± 0.0031 S/m | electrical conductivity (293.15 K, 101 kPa, frequency 0.0003 MHz, x1 = 0.001084, x3 = 1.907e-05): 0.0086 ± 0.003 S/m | electrical conductivity (298.15 K, 101 kPa, frequency 0.0003 MHz, x1 = 0.0005511, x3 = 2.53e-06): 0.0016 S/m | electrical conductivity (298.15 K, 101 kPa, frequency 0.0003 MHz, x1 = 0.0005511, x3 = 4.16e-06): 0.0025 ± 0.0038 S/m | electrical conductivity (298.15 K, 101 kPa, frequency 0.0003 MHz, x1 = 0.0005511, x3 = 6.69e-06): 0.0039 ± 0.0037 S/m | electrical conductivity (298.15 K, 101 kPa, frequency 0.0003 MHz, x1 = 0.0005511, x3 = 8.87e-06): 0.005 ± 0.0037 S/m | electrical conductivity (298.15 K, 101 kPa, frequency 0.0003 MHz, x1 = 0.0005511, x3 = 1.122e-05): 0.0062 ± 0.0037 S/m | electrical conductivity (298.15 K, 101 kPa, frequency 0.0003 MHz, x1 = 0.0005511, x3 = 1.285e-05): 0.007 ± 0.0037 S/m | electrical conductivity (298.15 K, 101 kPa, frequency 0.0003 MHz, x1 = 0.0005511, x3 = 1.701e-05): 0.009 ± 0.0036 S/m | electrical conductivity (298.15 K, 101 kPa, frequency 0.0003 MHz, x1 = 0.001084, x3 = 4.54e-06): 0.0028 ± 0.0036 S/m | electrical conductivity (298.15 K, 101 kPa, frequency 0.0003 MHz, x1 = 0.001084, x3 = 8.36e-06): 0.0046 ± 0.0035 S/m | electrical conductivity (298.15 K, 101 kPa, frequency 0.0003 MHz, x1 = 0.001084, x3 = 1.235e-05): 0.0065 ± 0.0035 S/m | electrical conductivity (298.15 K, 101 kPa, frequency 0.0003 MHz, x1 = 0.001084, x3 = 1.962e-05): 0.0099 ± 0.0034 S/m | electrical conductivity (303.15 K, 101 kPa, frequency 0.0003 MHz, x1 = 0.0005511, x3 = 3.44e-06): 0.0022 ± 0.0039 S/m | electrical conductivity (303.15 K, 101 kPa, frequency 0.0003 MHz, x1 = 0.0005511, x3 = 5.79e-06): 0.0035 ± 0.0039 S/m | electrical conductivity (303.15 K, 101 kPa, frequency 0.0003 MHz, x1 = 0.0005511, x3 = 9.23e-06): 0.0054 ± 0.0038 S/m | electrical conductivity (303.15 K, 101 kPa, frequency 0.0003 MHz, x1 = 0.0005511, x3 = 1.737e-05): 0.0097 ± 0.0038 S/m | electrical conductivity (303.15 K, 101 kPa, frequency 0.0003 MHz, x1 = 0.001084, x3 = 2.72e-06): 0.0018 S/m | electrical conductivity (303.15 K, 101 kPa, frequency 0.0003 MHz, x1 = 0.001084, x3 = 1.217e-05): 0.0067 ± 0.0037 S/m | electrical conductivity (303.15 K, 101 kPa, frequency 0.0003 MHz, x1 = 0.001084, x3 = 1.726e-05): 0.0092 ± 0.0037 S/m | electrical conductivity (308.15 K, 101 kPa, frequency 0.0003 MHz, x1 = 0.0005511, x3 = 3.98e-06): 0.0028 ± 0.0043 S/m | electrical conductivity (308.15 K, 101 kPa, frequency 0.0003 MHz, x1 = 0.0005511, x3 = 7.6e-06): 0.0049 ± 0.0042 S/m | electrical conductivity (308.15 K, 101 kPa, frequency 0.0003 MHz, x1 = 0.0005511, x3 = 1.031e-05): 0.0065 ± 0.0041 S/m | electrical conductivity (308.15 K, 101 kPa, frequency 0.0003 MHz, x1 = 0.001084, x3 = 4.18e-06): 0.0028 ± 0.0041 S/m | electrical conductivity (308.15 K, 101 kPa, frequency 0.0003 MHz, x1 = 0.001084, x3 = 8.36e-06): 0.005 ± 0.004 S/m | electrical conductivity (308.15 K, 101 kPa, frequency 0.0003 MHz, x1 = 0.001084, x3 = 1.235e-05): 0.0072 ± 0.004 S/m | electrical conductivity (308.15 K, 101 kPa, frequency 0.0003 MHz, x1 = 0.001084, x3 = 1.689e-05): 0.0097 ± 0.004 S/m

CC(O)C(=O)[O-].CCC[N+]1(C)CCCCC1 + CC#N
electrical conductivity (298 K, 101 kPa, x2 = 0.77): 2.16 ± 0.04 S/m | electrical conductivity (298 K, 101 kPa, x2 = 0.823): 2.56 ± 0.05 S/m | electrical conductivity (298 K, 101 kPa, x2 = 0.832): 2.64 ± 0.05 S/m | electrical conductivity (298 K, 101 kPa, x2 = 0.838): 2.76 ± 0.06 S/m | electrical conductivity (298 K, 101 kPa, x2 = 0.846): 2.85 ± 0.06 S/m | electrical conductivity (298 K, 101 kPa, x2 = 0.851): 2.85 ± 0.06 S/m | electrical conductivity (298 K, 101 kPa, x2 = 0.859): 2.88 ± 0.06 S/m | electrical conductivity (298 K, 101 kPa, x2 = 0.863): 2.92 ± 0.06 S/m | electrical conductivity (298 K, 101 kPa, x2 = 0.869): 2.97 ± 0.06 S/m | electrical conductivity (298 K, 101 kPa, x2 = 0.872): 2.98 ± 0.06 S/m | electrical conductivity (298 K, 101 kPa, x2 = 0.877): 2.98 ± 0.06 S/m | electrical conductivity (298 K, 101 kPa, x2 = 0.881): 3.01 ± 0.06 S/m | electrical conductivity (298 K, 101 kPa, x2 = 0.885): 3.03 ± 0.06 S/m | electrical conductivity (298 K, 101 kPa, x2 = 0.888): 3.06 ± 0.06 S/m | electrical conductivity (298 K, 101 kPa, x2 = 0.891): 3.04 ± 0.06 S/m | electrical conductivity (298 K, 101 kPa, x2 = 0.893): 3.06 ± 0.06 S/m | electrical conductivity (298 K, 101 kPa, x2 = 0.897): 3.09 ± 0.06 S/m | electrical conductivity (298 K, 101 kPa, x2 = 0.9): 3.09 ± 0.06 S/m | electrical conductivity (298 K, 101 kPa, x2 = 0.907): 3.09 ± 0.06 S/m | electrical conductivity (298 K, 101 kPa, x2 = 0.909): 3.09 ± 0.06 S/m | electrical conductivity (298 K, 101 kPa, x2 = 0.92): 3.04 ± 0.06 S/m | electrical conductivity (298 K, 101 kPa, x2 = 0.933): 2.92 ± 0.06 S/m | electrical conductivity (298 K, 101 kPa, x2 = 0.952): 2.68 ± 0.05 S/m

CCCC[n+]1ccn(C)c1.[I-] + F[B-](F)(F)F.[Li+]
electrical conductivity (308.15 K, 101 kPa, x2 = 0): 0.0286 ± 0.004 S/m

C[N+](CCO)(CCO)CCOCCO.[Cl-] + OCCO
viscosity (283.15 K, 101 kPa, x1 = 0.3322): 474 ± 16 mPa·s | viscosity (288.15 K, 101 kPa, x1 = 0.3322): 335 ± 11 mPa·s | viscosity (293.15 K, 101 kPa, x1 = 0.3322): 243.1 ± 6.9 mPa·s | viscosity (298.15 K, 101 kPa, x1 = 0.3322): 179.2 ± 4.7 mPa·s | viscosity (303.15 K, 101 kPa, x1 = 0.3322): 136.1 ± 3.3 mPa·s | viscosity (308.15 K, 101 kPa, x1 = 0.3322): 104.7 ± 2.4 mPa·s | viscosity (313.15 K, 101 kPa, x1 = 0.3322): 81.8 ± 1.8 mPa·s | viscosity (318.15 K, 101 kPa, x1 = 0.3322): 65.1 ± 1.4 mPa·s | viscosity (323.15 K, 101 kPa, x1 = 0.3322): 52.4 ± 1.1 mPa·s | viscosity (328.15 K, 101 kPa, x1 = 0.3322): 42.78 ± 0.89 mPa·s | viscosity (333.15 K, 101 kPa, x1 = 0.3322): 35.43 ± 0.74 mPa·s | viscosity (338.15 K, 101 kPa, x1 = 0.3322): 29.52 ± 0.62 mPa·s | viscosity (343.15 K, 101 kPa, x1 = 0.3322): 24.91 ± 0.52 mPa·s | viscosity (348.15 K, 101 kPa, x1 = 0.3322): 21.24 ± 0.44 mPa·s | viscosity (353.15 K, 101 kPa, x1 = 0.3322): 18.37 ± 0.38 mPa·s

CC[n+]1ccn(C)c1.F[B-](F)(F)F + OCCO
viscosity (293.15 K, 100 kPa, x2 = 0.6954): 14.9 ± 1.5 mPa·s | viscosity (298.15 K, 100 kPa, x2 = 0.283): 19.8 ± 2 mPa·s | viscosity (298.15 K, 100 kPa, x2 = 0.4435): 15.1 ± 1.5 mPa·s | viscosity (303.15 K, 100 kPa, x2 = 0): 34.5 ± 3.5 mPa·s | viscosity (303.15 K, 101 kPa, x1 = 0.4011): 9.88 ± 0.99 mPa·s | viscosity (313.15 K, 100 kPa, x2 = 0.4435): 9.71 ± 0.97 mPa·s | viscosity (313.15 K, 101 kPa, x1 = 0.4011): 7.3 ± 0.73 mPa·s | viscosity (323.15 K, 100 kPa, x2 = 0.4435): 7.57 ± 0.76 mPa·s | viscosity (323.15 K, 100 kPa, x2 = 0.5876): 6.34 ± 0.64 mPa·s | viscosity (333.15 K, 100 kPa, x2 = 0.4435): 6.08 ± 0.61 mPa·s | viscosity (333.15 K, 100 kPa, x2 = 0.5237): 5.44 ± 0.55 mPa·s | viscosity (333.15 K, 100 kPa, x2 = 0.8751): 4.42 ± 0.44 mPa·s | viscosity (333.15 K, 101 kPa, x1 = 0.0993): 4.28 ± 0.43 mPa·s | viscosity (333.15 K, 101 kPa, x1 = 0.2001): 4.08 ± 0.41 mPa·s | viscosity (343.15 K, 100 kPa, x2 = 0.4435): 5.01 ± 0.5 mPa·s | viscosity (343.15 K, 100 kPa, x2 = 0.5876): 4.13 ± 0.42 mPa·s | viscosity (353.15 K, 100 kPa, x2 = 0): 9.58 ± 0.97 mPa·s | viscosity (353.15 K, 100 kPa, x2 = 0.5876): 3.46 ± 0.35 mPa·s | viscosity (353.15 K, 100 kPa, x2 = 0.6954): 3.07 ± 0.31 mPa·s | viscosity (353.15 K, 100 kPa, x2 = 0.7916): 2.9 ± 0.29 mPa·s
